Each cell line was assayed with C1=CC2=C(C=C(C(=C2N=C1)O)N=NC3=CC4=C(C=C3)C=C(C=C4)S(=O)(=O)O)S(=O)(=O)O + Nc1nc2[nH]cc(CCc3ccc(C(=O)N[C@@H](CCC(=O)O)C(=O)O)cc3)c2c(=O)[nH]1 [Pemetrexed] (partner 0.2 µM) (assay: relative viability (nuclei count vs DMSO), 5 days (fraction); higher = more cells survive). Conditions: first compound 0.08 µM.
In short: (§1)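 A single step with final 0.05% Triton X-100, 1% formaldehyde and 1 ug/ml Hoechst fixed the cells and stained nuclei 5 days after treatment. Lung cancer cell lines in 1536-well plates had been treated by pin tool the day after seeding with one drug alone or a fixed anchor-drug dose plus five library-drug doses (not always all listed) in √10 steps, and nuclei were counted on 4× images. Relative viability is the ratio of nuclei in treated wells to nuclei in vehicle wells, taken as the median of duplicate plates.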

Cell Line	relative viability
NCI-H2342	0.82
NCI-H1650	0.433
NCI-H1993	0.511
SW 1573	0.881
NCI-H838	0.264
LCLC-103H	0.505
NCI-H520	0.696
NCI-H2126	0.671
EMC-BAC-2	0.417
NCI-H2085	0.923
HCC-366	0.162
NCI-H1666	0.824
NCI-H596	0.557
LK-2	0.312
NCI-H2087	0.643
SK-MES-1	0.972
H3255	0.545
COR-L23	0.206
COR-L 105	1.3
LOU-NH91	0.365
NCI-H2170	0.288
HCC-44	0.703
NCI-H522	0.949
SW 900	0.479
NCI-H1395	0.814
NCI-H1792	1.02
NCI-H1793	1
NCI-H1563	0.776
NCI-H1944	0.61
NCI-H358	0.159

Same assay, conditions: first compound 0.253 µM

Cell Line	relative viability
NCI-H2342	0.791
NCI-H1650	0.346
NCI-H1993	0.539
SW 1573	0.817
NCI-H838	0.251
LCLC-103H	0.459
NCI-H520	0.706
NCI-H2126	0.641
EMC-BAC-2	0.433
NCI-H2085	0.864
HCC-366	0.14
NCI-H1666	0.85
NCI-H596	0.452
LK-2	0.224
NCI-H2087	0.599
NCI-H1648	0.695

Cell Line	relative viability
SK-MES-1	0.953
H3255	0.576
COR-L23	0.202
COR-L 105	1.14
LOU-NH91	0.38
NCI-H2170	0.281
HCC-44	0.692
NCI-H522	1.03
SW 900	0.49
NCI-H1395	0.816
NCI-H1792	0.764
NCI-H1793	0.844
NCI-H1563	0.744
NCI-H1944	0.559
NCI-H358	0.16

Same assay, conditions: first compound 0.8 µM

Cell Line	relative viability
NCI-H2342	0.766
NCI-H1650	0.368
NCI-H1993	0.6
SW 1573	0.78
NCI-H838	0.235
LCLC-103H	0.493
NCI-H520	0.637
NCI-H2126	0.689
EMC-BAC-2	0.433
NCI-H2085	0.846
HCC-366	0.157
NCI-H1666	0.827
NCI-H596	0.52
LK-2	0.212
NCI-H2087	0.567
SK-MES-1	0.932
H3255	0.559
COR-L23	0.2
COR-L 105	1.21
LOU-NH91	0.393
NCI-H2170	0.284
HCC-44	0.649
NCI-H522	1.04
SW 900	0.468
NCI-H1395	0.68
NCI-H1792	0.821
NCI-H1793	0.799
NCI-H1563	0.726
NCI-H1944	0.57
NCI-H358	0.162

Same assay, conditions: first compound 2.53 µM

Cell Line	relative viability
NCI-H2342	0.807
NCI-H1650	0.389
NCI-H1993	0.589
SW 1573	0.838
NCI-H838	0.234
LCLC-103H	0.439
NCI-H520	0.715
NCI-H2126	0.723
EMC-BAC-2	0.458
NCI-H2085	0.903
HCC-366	0.145
NCI-H1666	0.891
NCI-H596	0.493
LK-2	0.269
NCI-H2087	0.602
SK-MES-1	0.942
H3255	0.556
COR-L23	0.199
COR-L 105	1.04
LOU-NH91	0.361
NCI-H2170	0.266
HCC-44	0.675
NCI-H522	0.971
SW 900	0.531
NCI-H1395	0.763
NCI-H1792	0.821
NCI-H1793	0.841
NCI-H1563	0.79
NCI-H1944	0.634
NCI-H358	0.163

Same assay, conditions: first compound 8 µM

Cell Line	relative viability
NCI-H2342	0.765
NCI-H1650	0.4
NCI-H1993	0.617
SW 1573	0.257
NCI-H838	0.246
LCLC-103H	0.453
NCI-H520	0.692
NCI-H2126	0.75
EMC-BAC-2	0.421
NCI-H2085	0.92
HCC-366	0.163
NCI-H1666	0.892
NCI-H596	0.486
LK-2	0.283
NCI-H2087	0.7
NCI-H1648	0.855

Cell Line	relative viability
SK-MES-1	0.882
H3255	0.57
COR-L23	0.192
COR-L 105	1.1
LOU-NH91	0.36
NCI-H2170	0.251
HCC-44	0.728
NCI-H522	1.09
SW 900	0.481
NCI-H1395	0.782
NCI-H1792	0.897
NCI-H1793	0.888
NCI-H1563	0.376
NCI-H1944	0.395
NCI-H358	0.171

Each cell line was assayed with O=C(NC1CCNCC1)c1n[nH]cc1NC(=O)c1c(Cl)cccc1Cl [AT-7519] + Cc1nc(Nc2ncc(C(=O)Nc3c(C)cccc3Cl)s2)cc(N2CCN(CCO)CC2)n1 [Dasatinib] (partner 0.075 µM) in the same assay as above. Conditions: first compound 0.01 µM.
In short: as §1

Cell Line	relative viability
NCI-H2342	0.328
NCI-H1623	0.58
NCI-H727	0.392
NCI-H1650	0.32
NCI-H1993	0.626
SW 1573	0.762
NCI-H838	0.298
LCLC-103H	0.533
NCI-H520	0.244
NCI-H2126	0.658
EMC-BAC-2	0.358
NCI-H2085	0.219
HCC-366	0.729
NCI-H1666	0.744
NCI-H596	0.586
LK-2	0.288
NCI-H2087	1.14
SK-MES-1	0.336
H3255	0.441
COR-L23	0.434
COR-L 105	0.366
LOU-NH91	0.613
NCI-H2170	0.593
SW 900	0.715
NCI-H1395	0.418
NCI-H1793	0.319
NCI-H1563	0.467
NCI-H1944	0.205
ABC-1	0.525
NCI-H358	0.15

Same assay, conditions: first compound 0.03162 µM

Cell Line	relative viability
NCI-H2342	0.277
NCI-H1623	0.646
NCI-H727	0.401
NCI-H1650	0.293
NCI-H1993	0.516
SW 1573	0.466
NCI-H838	0.285
LCLC-103H	0.388
NCI-H520	0.241
NCI-H2126	0.626
EMC-BAC-2	0.327
NCI-H2085	0.242
HCC-366	0.571
NCI-H1666	0.75
NCI-H596	0.501
LK-2	0.248

Cell Line	relative viability
NCI-H2087	0.938
SK-MES-1	0.31
H3255	0.417
COR-L23	0.513
COR-L 105	0.334
LOU-NH91	0.6
NCI-H2170	0.576
NCI-H522	0.864
SW 900	0.568
NCI-H1395	0.377
NCI-H1793	0.361
NCI-H1563	0.418
NCI-H1944	0.198
ABC-1	0.617
NCI-H358	0.163

Same assay, conditions: first compound 0.3162 µM

Cell Line	relative viability
NCI-H2342	0.314
NCI-H1623	0.63
NCI-H727	0.257
NCI-H1650	0.22
NCI-H1993	0.441
SW 1573	0.255
NCI-H838	0.259
LCLC-103H	0.451
NCI-H520	0.174
NCI-H2126	0.497
EMC-BAC-2	0.296
NCI-H2085	0.256
HCC-366	0.435
NCI-H1666	0.75
NCI-H596	0.629
NCI-H2087	0.732

Cell Line	relative viability
SK-MES-1	0.405
H3255	0.409
COR-L23	0.369
COR-L 105	0.259
LOU-NH91	0.604
NCI-H2170	0.626
NCI-H522	0.841
SW 900	0.642
NCI-H1395	0.408
NCI-H1792	0.845
NCI-H1793	0.407
NCI-H1563	0.435
NCI-H1944	0.215
ABC-1	0.398
NCI-H358	0.161

Same assay, conditions: first compound 1 µM

Cell Line	relative viability
NCI-H2342	0.313
NCI-H1623	0.604
NCI-H727	0.135
NCI-H1650	0.164
NCI-H1993	0.312
SW 1573	0.0794
NCI-H838	0.249
LCLC-103H	0.54
NCI-H520	0.166
NCI-H2126	0.357
EMC-BAC-2	0.227
